Results published in PMC9525273 (Nature Communications, 2022).
Where “and” joins values, the source holds several entries; their conditions need not be identical. Equal values may be shown once. Read-outs that look alike come from different tables or passages of the source.

Key:
Assay type in all cases: cell-based, Plasmodium falciparum
[1] = tested on: HCR2 parasites (highly cipargamin-resistant clone 2); assay: P. falciparum proliferation assay (72 h, fluorescent DNA-intercalating dye)
Description: (§1) For experiments with all other parasites, the effects of compounds of interest on parasite proliferation was measured in 96-well plates containing serial dilutions of the compounds in culture medium, with a fluorescent DNA-intercalating dye used to detect surviving parasites. The assays were initiated with erythrocytes infected with predominantly ring-stage parasites, and the starting parasitaemia and haematocrit were both 1%.

[2] = tested on: Dd2-PfATP4^T418N,P990R parasites; assay: as above
Description: as §1

Dd2 parasites = assay: as above
Description: as §1

[3] = tested on: HCR1 parasites (highly cipargamin-resistant clone 1); assay: as above
Description: as §1

[4] = tested on: Dd2-Polδ-PfATP4^G358S parasites; assay: as above
Description: as §1

NF54^CTL parasites = assay: P. falciparum proliferation assay (72 h, flow cytometry, SYBR Green I/MitoTracker)
Procedure, shortened: (§2)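 Predominantly ring-stage cultures at 0.3% parasitaemia, 1% haematocrit, in medium with 10% O+ human serum; compound exposure 72 h, DMSO <0.5% (v/v). Live parasites counted by flow cytometry with SYBR Green I and 200 nM MitoTracker Deep Red. IC50/IC90 from linear interpolation of dose-response data.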

NF54^G358S-1 parasites = assay: as above
Procedure, shortened: as §2

NF54^G358S-2 parasites = assay: as above
Procedure, shortened: as §2

C[C@H]1[C@@H](O)O[C@@H]2O[C@@]3(C)CC[C@H]4[C@H](C)CC[C@@H]1[C@@]24OO3 [Dihydroartemisinin]
IC50 ([1]; Plasmodium falciparum, read-out: Dihydroartemisinin IC50 values, HCR2, MEAN): 1.51 nM | IC50 ([1]; Plasmodium falciparum, read-out: Dihydroartemisinin IC50 values, HCR2, single experiments): 1.46 nM | IC50 ([1]; read-out: Dihydroartemisinin IC50 values, HCR2, single experiments): 1.62 nM and 1.77 nM and 1.19 nM | IC50 ([2]; Plasmodium falciparum, DD2, read-out: Dihydroartemisinin IC50 values, Dd2-PfATP4T418N,P990R, MEAN): 2.44 nM | IC50 ([2]; Plasmodium falciparum, DD2, read-out: Dihydroartemisinin IC50 values, Dd2-PfATP4T418N,P990R, single experiments): 2.1 nM | IC50 ([2]; read-out: Dihydroartemisinin IC50 values, Dd2-PfATP4T418N,P990R, single experiments): 2.01 nM and 2.76 nM and 2.9 nM | IC50 (Dd2 parasites; Plasmodium falciparum, DD2, read-out: Dihydroartemisinin IC50 values, Dd2, MEAN): 2.17 nM | IC50 (Dd2 parasites; Plasmodium falciparum, DD2, read-out: Dihydroartemisinin IC50 values, Dd2, single experiments): 1.79 nM | IC50 (Dd2 parasites; read-out: Dihydroartemisinin IC50 values, Dd2, single experiments): 1.66 nM and 2.87 nM and 2.36 nM | IC50 ([3]; Plasmodium falciparum, read-out: Dihydroartemisinin IC50 values, HCR1, MEAN): 1.55 nM | IC50 ([3]; read-out: Dihydroartemisinin IC50 values, HCR1, single experiments): 1.37 nM and 2.01 nM and 1.76 nM | IC50 ([4]; Plasmodium falciparum, DD2, read-out: Dihydroartemisinin IC50 values, Dd2-Polδ-PfATP4G358S, MEAN): 2.58 nM | IC50 ([4]; Plasmodium falciparum, DD2, read-out: Dihydroartemisinin IC50 values, Dd2-Polδ-PfATP4G358S, single experiments): 2.3 nM | IC50 ([4]; read-out: Dihydroartemisinin IC50 values, Dd2-Polδ-PfATP4G358S, single experiments): 2.08 nM and 3.3 nM and 2.66 nM | FC (IC50) (NF54^CTL parasites; NF54CTL compared to NF54WT): 1.1 fold | FC (IC90) (NF54^CTL parasites; NF54CTL compared to NF54WT): 1.2 fold | IC90 (NF54^CTL parasites; NF54CTL parasites, individual experiments, read-out: IC90 values): 3 nM and 2.45 nM and 2.56 nM | IC90 (NF54^CTL parasites; Plasmodium falciparum, NF54, NF54CTL parasites, individual experiments, read-out: IC90 values): 2.88 nM | IC90 (NF54^CTL parasites; Plasmodium falciparum, NF54, NF54CTL parasites, mean of the experiments, read-out: IC90 values, MEAN): 2.7 nM | IC50 (NF54^CTL parasites; Plasmodium falciparum, NF54, NF54CTL, 10% human serum, read-out: IC50 ± SEM): 0.9 ± 0.1 nM | IC50 (NF54^CTL parasites; Plasmodium falciparum, NF54, read-out: Dihydroartemisinin IC50 values, NF54CTL, MEAN): 0.89 nM | IC50 (NF54^CTL parasites; read-out: Dihydroartemisinin IC50 values, NF54CTL, single experiments): 0.98 nM and 0.8 nM and 0.7 nM | FC (IC50) (NF54^G358S-1 parasites; NF54G358S-1 compared to NF54WT): 1.1 fold | FC (IC90) (NF54^G358S-1 parasites; NF54G358S-1 compared to NF54WT): 1.1 fold | IC90 (NF54^G358S-1 parasites; NF54G358S-1 parasites, individual experiments, read-out: IC90 values): 2.78 nM and 2.34 nM and 2.64 nM | IC90 (NF54^G358S-1 parasites; Plasmodium falciparum, NF54, NF54G358S-1 parasites, individual experiments, read-out: IC90 values): 2.68 nM | IC90 (NF54^G358S-1 parasites; Plasmodium falciparum, NF54, NF54G358S-1 parasites, mean of the experiments, read-out: IC90 values, MEAN): 2.6 nM | IC50 (NF54^G358S-1 parasites; Plasmodium falciparum, NF54, read-out: Dihydroartemisinin IC50 values, NF54G358S-1, MEAN): 0.9 nM | IC50 (NF54^G358S-1 parasites; read-out: Dihydroartemisinin IC50 values, NF54G358S-1, single experiments): 0.76 nM and 0.77 nM | FC (IC50) (NF54^G358S-2 parasites; NF54G358S-2 compared to NF54WT): 1.1 fold | FC (IC90) (NF54^G358S-2 parasites; NF54G358S-2 compared to NF54WT): 1.2 fold | IC90 (NF54^G358S-2 parasites; NF54G358S-2 parasites, individual experiments, read-out: IC90 values): 2.9 nM and 2.51 nM and 2.93 nM | IC50 (NF54^G358S-2 parasites; Plasmodium falciparum, NF54, NF54G358S-2, 10% human serum, read-out: IC50 ± SEM): 0.9 ± 0.1 nM | IC90 (NF54^G358S-2 parasites; Plasmodium falciparum, NF54, NF54G358S-2 parasites, individual experiments, read-out: IC90 values): 2.84 nM | IC90 (NF54^G358S-2 parasites; Plasmodium falciparum, NF54, NF54G358S-2 parasites, mean of the experiments, read-out: IC90 values, MEAN): 2.8 nM | IC50 (NF54^G358S-2 parasites; Plasmodium falciparum, NF54, read-out: Dihydroartemisinin IC50 values, NF54G358S-2, MEAN): 0.91 nM | IC50 (NF54^G358S-2 parasites; read-out: Dihydroartemisinin IC50 values, NF54G358S-2, single experiments): 0.73 nM
